We go through 3 molecules from patent US20260115214A1, “APPLICATION OF INHIBITORS OF GLYCOLYTIC PATHWAY IN PREPARATION OF DRUGS FOR PREVENTING AND TREATING PORCINE REPRODUCTIVE AND RESPIRATORY SYNDROME VIRUS (PRRSV) INFECTION” (NANJING AGRICULTURAL UNIVERSITY, priority 2020, published 2026).

The subject of one series is PRRSV BB0907 strain. Kind of series: Treatment of PRRSV-infected piglets by oral administration. The class given is in vivo. Conditions: for microscopic lung lesion scores: day 14, compared with challenge control group, P<0.01; for gross lung lesion scores: day 14, compared with positive control group, sodium oxamate P<0.01, Galloflavin P<0.001; for PRRSV viral load in the lungs / histopathological changes of lungs / gross lung lesions (observation) / clinical symptoms (observation) / clinical symptoms compared with the positive control group / weight growth rate / virus content in the serum (PRRSV genome copy number, qRT-PCR): oral daily, sodium oxamate 7 mg or Galloflavin 10 μg; for PRRSV viral load in the lungs: 14 dpi, P<0.0001; for histopathological changes of lungs: day 14; for gross lung lesions (observation): day 14, compared with the positive control group; for clinical symptoms (observation): days 0-14; for clinical symptoms compared with the positive control group: days 0-14, P<0.001; for weight growth rate: days 0-14, P>0.05 vs negative control; for virus content in the serum (PRRSV genome copy number, qRT-PCR): serum at 1, 4, 7, 10, 14 dpi. Background: In qPCR the cycle at which signal appears reflects the starting amount.

The subject of the next series is PRRSV. Kind of series: PRRSV replication in infected Marc-145 cells treated with glycolysis inhibitors (Western blotting, TCID50, RT-PCR). Conditions: for PRRSV ORF7 mRNA level in the cells (RT-PCR) / virus titer (TCID50) in cell culture medium: 36 h, 2-DG 0-15 μM; for PRRSV ORF7 mRNA level in the cells (RT-PCR) / PRRSV N protein expression level (Western blotting) / virus titer (TCID50) in cell culture medium: SO 0, 25, 50 mM; for PRRSV ORF7 mRNA level in the cells (RT-PCR) / PRRSV N protein expression level (Western blotting): Gal 10, 50, 100 μM; for PRRSV N protein expression level (Western blotting): 36 h after infection. It is filed as cell-based, porcine reproductive and respiratory syndrome virus. The method, then:
Highly pathogenic PRRSV strains BB0907 and Marc-145 cells are maintained in the laboratory and are conventional strains and cells disclosed in the prior art.
Marc-145 cells were cultured in a 96-well plate. When the cell confluence reached 70%, a nutrient solution was pipetted, and the cell surface was washed 3 times with PBS. Ten-fold serial dilutions of PRRSV were added to the cells and incubated at 37° C. for 1 h. A medium was replaced with fresh 2% FBS-DMEM. Virus titers were determined 5 days post inoculation (dpi) by endpoint dilution assay. 50% tissue culture infectious dose (TCID50) was calculated by a Reed-Muench method.
Cellular RNA was extracted following operating instructions of an OMEGA RNA virus extraction kit. After reverse transcription into cDNA, […].
By a 2-ΔΔCt method, the relative content of mRNA in each gene in the samples was calculated by a CT value.
(§1) To explore the effect of glycolysis in cells on PRRSV replication, an inhibitor of glycolytic pathway, 2-DG, was used to inhibit glycolysis in cells. […] After the Marc-145 cells were infected with PRRSV (0.01 MOI), the Marc-145 cells were treated with 0 μM, 2.5 μM, 5 μM, 10 μM and 15 μM of 2-DG respectively. After 36 hours, the inhibition efficiency of the 2-DG on PRRSV on the Marc-145 cells was detected by Western blotting.
To further verify the effect of glycolysis on PRRSV, PRRSV-infected Marc-145 cells were treated with a key enzyme in the last step of glycolysis, that is, an inhibitor of lactate dehydrogenase, sodium oxamate (SO). A control group was set up to detect whether there was a difference in the level of virus replication. […] After the Marc-145 cells were infected with PRRSV (0.01 MOI), the Marc-145 cells were treated with 0 mM, 25 mM and 50 mM of SO. 36 h after infection, the PRRSV N protein expression level, virus titer and PRRSV ORF7 mRNA level were detected by Western blotting, TCID50 and RT-PCR respectively.
PRRSV-infected Marc-145 cells were treated with an inhibitor of lactate dehydrogenase (Galloflavin, Gal), and a control group was set up to detect differences in viral replication levels. […] After Marc-145 cells were infected with PRRSV (0.01 MOI), the Marc-145 cells were treated with 10 μM, 50 μM and 100 μM of Gal. […] In addition, A PRRSV ORF7 mRNA level and the virus titer were detected by TCID50 and RT-PCR.
In general terms: A western blot detects proteins with antibodies after separation by electrophoresis.

A further series relates to Marc-145 cells. The class given is cell-based. Conditions: monkey, 48 h. The method, then:
Marc-145 cells were cultured in 10% FBS-DMEM containing different concentrations of sodium oxamate (1-250 mM), Galloflavin (0-2.5 mM) and 2-deoxy-D-glucose (0-20 μM), and incubated at 37° C. for 48 h. Cell viability was detected with an enhanced CCK8 kit. DMSO was used as a negative control.
as §1
To further verify the effect of glycolysis on PRRSV, PRRSV-infected Marc-145 cells were treated with a key enzyme in the last step of glycolysis, that is, an inhibitor of lactate dehydrogenase, sodium oxamate (SO). […] 36 h after infection, the PRRSV N protein expression level, virus titer and PRRSV ORF7 mRNA level were detected by Western blotting, TCID50 and RT-PCR respectively.
PRRSV-infected Marc-145 cells were treated with an inhibitor of lactate dehydrogenase (Galloflavin, Gal), and a control group was set up to detect differences in viral replication levels. […] In addition, A PRRSV ORF7 mRNA level and the virus titer were detected by TCID50 and RT-PCR.

For `O=c1oc2c(cc1O)oc(=O)c1cc(O)c(O)c(O)c12` [Galloflavin], in the series on PRRSV BB0907 strain, the “microscopic lung lesion scores” value was “significantly lower than those of the challenge control group”; the “gross lung lesion scores” value is reported as “more significantly lower”; the “PRRSV viral load in the lungs” value is recorded as “significantly lower than that in the positive control group”; the “histopathological changes of lungs” value was “significantly alleviated, similar to those in the negative control group”. Further, in the series with PRRSV BB0907 strain, the “gross lung lesions (observation)” value is given as “significantly minor lung lesions”, the “clinical symptoms (observation)” value is given as “no obvious clinical symptoms”, the “clinical symptoms compared with the positive control group” value is “significantly relieved clinical symptoms” and the weight growth rate result is “approximate to that of the negative control group”. For the same molecule, the “virus content in the serum (PRRSV genome copy number, qRT-PCR)” value in the series with PRRSV BB0907 strain was “significantly lower than that in the positive control group”. In addition, the “level of PRRSV replication (figure legend)” value (“level of PRRSV replication” below) in the series on PRRSV is recorded as “reduces the level of PRRSV replication”. In the series on PRRSV (PRRSV 0.01 MOI), the “PRRSV ORF7 mRNA level in the cells (RT-PCR)” value (from here on “PRRSV ORF7 mRNA level”) is on record as “decrease the mRNA level of PRRSV in a dose-dependent manner” and the “PRRSV N protein expression level (Western blotting)” value is “decrease PRRSV replication in the cells in a dose-dependent manner”.

Regarding `O=CC[C@@H](O)[C@H](O)[C@H](O)CO` [2-DG, 2-deoxy-D-glucose], in the series on PRRSV, the “level of PRRSV replication” value is on record as “reduces the level of PRRSV replication”. For the same molecule, in the series on PRRSV (PRRSV 0.01 MOI), the “virus titer (TCID50) in cell culture medium” value is “decreased in a dose-dependent manner” and the “PRRSV ORF7 mRNA level” value is “decreased in a dose-dependent manner”. The inhibition – broadly, the percentage by which the read-out fell short of the control – at 5 µM in the series on PRRSV (Porcine reproductive and respiratory syndrome virus, MARC145, concentration of 5 μM, PRRSV 0.01 MOI, after 36 hours, read-out: inhibition efficiency against PRRSV (Western blotting)) was around 50%.

On to `NC(=O)C(=O)[O-].[Na+]` [sodium oxamate], for which, in the series on PRRSV BB0907 strain, the “microscopic lung lesion scores” value is “significantly lower than those of the challenge control group”; the “gross lung lesion scores” value is given as “significantly lower”; the “PRRSV viral load in the lungs” value was “significantly lower than that in the positive control group”; the “histopathological changes of lungs” value is “mild thickened alveolar septa and inflammatory cell infiltration”. In the series on PRRSV BB0907 strain, the “gross lung lesions (observation)” value is “significantly minor lung lesions”, the “clinical symptoms (observation)” value is listed as “no obvious clinical symptoms”, the “clinical symptoms compared with the positive control group” value is “significantly relieved clinical symptoms” and the weight growth rate result is listed as “approximate to that of the negative control group”. The “virus content in the serum (PRRSV genome copy number, qRT-PCR)” value with PRRSV BB0907 strain is on record as “significantly lower than that in the positive control group”. Also, the “level of PRRSV replication” value in the series on PRRSV was “reduces the level of PRRSV replication”. In the series with PRRSV (PRRSV 0.01 MOI), the “virus titer (TCID50) in cell culture medium” value is reported as “reduce PRRSV replication in the cells in a dose-dependent manner”, the “PRRSV ORF7 mRNA level” value is “reduce PRRSV replication in the cells in a dose-dependent manner” and the “PRRSV N protein expression level (Western blotting)” value was “reduce PRRSV replication in the cells in a dose-dependent manner”. The “concentration at which the substance starts to be toxic to the cells (CCK8)” value in the series with Marc-145 cells was found to be 100000 µM.
